Where a name gives a salt, the structure may show the parent alone. Residues, ends and D or L forms follow the SMILES beside them. *: point of attachment. Farnesyl = CC(C)=CCC/C(C)=C/CC/C(C)=C/C*; Boc = CC(C)(C)OC(=O)*; CHN2 = [N-]=[N+]=C*; CH2Cl = ClC*
Key:
[1] = tested on: Molt-3 (T-lineage ALL); test: MTT cytotoxicity assay, Molt-3; assay type: cell-based, human; conditions: Homo sapiens, MOLT-3, MTT, 24-36 hours at 37° C., 0.1 to 250 μM
Description: (§1) Cytotoxicity of various compounds against tumor cells was performed using the MTT (3-[4,5-[…]]-2,5-diphenyl tetrazolium bromide) assay (Boehringer Mannheim Corp., Indianapolis, Ind.). Unless otherwise specified, all cell lines were obtained from the American Type Culture Collection (ATCC). Briefly, exponentially growing cells were seeded into a 96-well plate at a density of 2.5×10^4 cells/well and incubated for 36 hours at 37° C. prior to drug exposure. On the day of treatment, culture medium was carefully aspirated from the wells and replaced with fresh medium containing the indicated compound at concentrations ranging from 0.1 to 250 μM. Triplicate wells were used for each treatment.
(§2) Human leukemic cell lines (NALM-6, MOLT-3) glioblastoma cells (U373) and human breast tumor cell lines (BT20 and MDA-MB-231) were obtained from the American Type Culture Collection and maintained as a continuous cell line in Dulbecco's modified Eagles's medium supplemented with 10% fetal bovine serum and antibiotics.
(§3) The cells were incubated with the various compounds for 24-36 hours at 37° C. in a humidified 5% CO2 atmosphere. To each well, 10 μl of MTT (0.5 mg/ml final concentration) was added and the plates were incubated at 37° C. for 4 hours to allow MTT to form formazan crystals by reacting with metabolically active cells. The formazan crystals were solubilized overnight at 37° C. in a solution containing 10% SDS in 0.01 M HCl. The absorbence of each well was measured in a microplate reader (Labsystems) at 540 nm and a reference wavelength of […]. To translate the OD540 values into the number of live cells in each well, the OD540 values were compared to those on standard OD540 --versus--cell number curves generated for each cell line. The percent survival was calculated using the formula: [formula]
(§4) The IC50 values were calculated by non-linear regression analysis and are shown below in Tables 1-6.

[2] = tested on: U-373 (glioblastoma); test: MTT cytotoxicity assay, U-373; assay type: cell-based; conditions: Homo sapiens, U373 MG, 24-36 hours at 37° C., 0.1 to 250 μM
Description: as §1, §2, §3, §4

[3] = tested on: BT-20 (breast cancer); test: MTT cytotoxicity assay, BT-20; assay type: cell-based; conditions: Homo sapiens, 24-36 hours at 37° C., 0.1 to 250 μM
Description: as §1, §2, §3, §4

[4] = tested on: Nalm-6 (B-lineage ALL); test: MTT cytotoxicity assay, Nalm-6; assay type: cell-based; conditions: Homo sapiens, 24-36 hours at 37° C., 0.1 to 250 μM
Description: as §1, §2, §3, §4

[5] = tested on: PC-3 (prostate cancer); test: MTT cytotoxicity assay, PC-3; assay type: cell-based; conditions: 24-36 hours at 37° C., 0.1 to 250 μM
Description: as §1, §3, §4

Structure (SMILES) | IC50 [1] | IC50 [2] | IC50 [3] | IC50 [4] | IC50 [5]
CC(C)=CCC/C(C)=C/CC/C(C)=C/CSC[C@H](NC(=O)OC(C)(C)C)C(=O)C=[N+]=[N-] [HI-82, N-Boc-S-farnesyl-Cys diazomethyl ketone] | 50.1 µM | > 100 µM | > 100 µM | 49.8 µM | > 100 µM
CC(=O)N[C@@H](CSCC=C(C)C)C(=O)C=[N+]=[N-] [HI-123, N-Ac-S-(3-methyl-2-butenyl)-Cys diazomethyl ketone] | > 100 µM | > 100 µM | > 100 µM | > 100 µM | > 100 µM
CC(C)=CCC/C(C)=C/CC/C(C)=C/CSC[C@H](NC(=O)CNC(=O)OC(C)(C)C)C(=O)C=[N+]=[N-] [HI-401, N-Boc-Gly-S-trans-trans-farnesyl-Cys diazomethyl ketone] (Boc-Gly-Cys(Farnesyl)-CHN2) | 84.5 µM | > 100 µM | 95.1 µM | 51.3 µM | 90.6 µM
CC(=O)N[C@@H](CSC(c1ccccc1)(c1ccccc1)c1ccccc1)C(=O)CCl [HI-350, N-Ac-S-trityl-cysteine chloromethyl ketone] | 26.4 µM | 87.1 µM | 88.8 µM | 10 µM | 52.2 µM
CCCCCCCCCCCCSC[C@H](NC(=O)OCC)C(=O)CCl [HI-319] | 84.2 µM | > 100 µM | > 100 µM | 77.6 µM | > 100 µM
CCCCCCCCCCCCSC[C@H](NC(C)=O)C(=O)CSc1ccccc1 [HI-269, N-Ac-S-dodecyl-Cys-CH2 -SPh] | > 100 µM | > 100 µM | > 100 µM | > 100 µM | > 100 µM
CCCCCCCCCCCCSC[C@H](NC(C)=O)C(=O)C=[N+]=[N-] [HI-348, N-Ac-S-dodecyl-Cys diazomethyl ketone] | 22.9 µM | > 100 µM | 97.9 µM | 15.4 µM | > 100 µM
CCCCCCCCCCCCSC[C@H](NC(C)=O)C(=O)CBr [HI-488, N-Ac-S-dodecyl-cysteine bromomethyl ketone] | 3.19 µM | 22.5 µM | 33.8 µM | 1.3 µM | 39.6 µM
CCCCCCCCCCCCSC[C@H](NC(=O)OC(C)(C)C)C(=O)CCl [HI-129, N-Boc-S-dodecyl-Cys chloromethyl ketone] | 15.5 µM | > 100 µM | 48.9 µM | 15.1 µM | 64.6 µM
CC(=O)N[C@@H](CSC/C=C(\C)CCC=C(C)C)C(=O)C=[N+]=[N-] [HI-122, N-Ac-S-trans-geranyl-Cys diazomethyl ketone] | > 100 µM | > 100 µM | > 100 µM | > 100 µM | > 100 µM
CCCCCCCCCCCCSC[C@@H](C=O)NC(C)=O [HI-274, N-Ac-S-dodecyl-Cys-H] | 13.1 µM | > 100 µM | 22.8 µM | 12.6 µM | 
CCCCCCCCCCCCSC[C@H](NC(=O)OCc1ccccc1)C(=O)CCl [HI-320, N-Benzyloxycarbonyl-S-dodecylcysteine chloromethyl ketone] | > 100 µM | > 100 µM | > 100 µM | 13.5 µM | > 100 µM
CCCCCCCCCCCCSC[C@H](NC(=O)c1cccc(N(C)C)c1)C(=O)CCl [HI-268, N-3-Dimethylaminobenzoyl-S-dodecyl-cysteine chloromethyl ketone] |  | > 100 µM | > 100 µM | 96.1 µM | > 100 µM
CC(C)=CCC/C(C)=C/CC/C(C)=C/CSCC(=O)C=[N+]=[N-] [HI-84, S-trans-trans-Farnesyl-mercaptomethyl diazomethyl ketone] | 60.3 µM | > 100 µM | > 100 µM | > 100 µM | > 100 µM
CC(=O)N[C@@H](CSCC=C(C)C)C(=O)CCl [HI-128, N-Ac-S-(3-methyl-2-butenyl)-Cys chloromethyl ketone] | 7.9 µM | > 100 µM | 25.7 µM | 12.6 µM | 47.8 µM
CC(C)=CCC/C(C)=C/CC/C(C)=C/CSCCC(=O)CCl [HI-125, S-trans-trans-Farnesyl-2-mercaptoethyl chloromethyl ketone] | 35.5 µM | > 100 µM | > 100 µM | 40.7 µM | > 100 µM

Structure (SMILES) | IC50 [1] | IC50 [2] | IC50 [3] | IC50 [4] | IC50 [5]
CCCCCCCCCCCCSC[C@H](N)C(=O)CCl [HI-252, S-Dodecyl-Cys chloromethyl ketone hydrochloride] | 12.5 µM | > 100 µM | > 100 µM | 17.7 µM | > 100 µM
CCCCCCCCCCCCSC[C@H](NC(=O)OCC1c2ccccc2-c2ccccc21)C(=O)CCl [HI-398, N-9-Fluorenylmethyloxycarbonyl-S-dodecyl-cysteine chloromethyl ketone] | 32.3 µM | > 100 µM | > 100 µM | 25.7 µM | > 100 µM
CC(C)=CCC/C(C)=C/CC/C(C)=C/CSC[C@H](NC(=O)OC(C)(C)C)C(=O)CCl [HI-124, N-Boc-S-farnesyl-Cys chloromethyl ketone] | 7.7 µM | > 100 µM | > 100 µM | 10.7 µM | > 100 µM
CCCCCCCCCCCCSC[C@H](NC(C)=O)C(=O)CSc1c(F)c(F)c(F)c(F)c1F [HI-399] | 40.8 µM | > 100 µM | > 100 µM | 91.2 µM | 91.6 µM
CC(C)=CCC/C(C)=C/CC/C(C)=C/CSCC(=O)CCl [HI-126, S-trans-trans-Farnesyl-mercaptomethyl chloromethyl ketone] | > 100 µM | > 100 µM | > 100 µM | 84.3 µM | > 100 µM
CC(=O)N[C@@H](CSC/C=C(\C)CC/C=C(\C)CCC=C(C)C)C(=O)C=[N+]=[N-] [HI-367, N-Ac-S-trans-trans-farnesyl-Cys diazomethyl ketone] | 32.2 µM | > 100 µM | > 100 µM | 30.3 µM | > 100 µM
CC(=O)N[C@@H](CSC/C=C(\C)CCC=C(C)C)C(=O)CCl [HI-127, N-Ac-S-trans-geranyl-Cys chloromethyl ketone] | > 100 µM | > 100 µM | > 100 µM | > 100 µM | > 100 µM
CCCCCCCCCCCCSC[C@H](NC(C)=O)C(=O)CSc1ccc2ccccc2c1 [HI-302, N-Ac-S-dodecyl-Cys-CH2 -S-2-naphthyl] | > 100 µM | > 100 µM | > 100 µM | > 100 µM | > 100 µM
CC(=O)N[C@@H](CSC(=O)OCc1ccccc1)C(=O)CCl [HI-389, N-Ac-S-benzyloxycarbonyl-cysteine chloromethyl ketone] | 3.5 µM | 54.4 µM | 49.3 µM | 1.2 µM | 23.4 µM
CCCCCCCCCCCCSC[C@H](NC(C)=O)C(=O)CSCCC(=O)O [HI-273, N-Ac-S-dodecyl-Cys-CH2 -S-CH2 CH2 CO2 H] | 50.3 µM | > 100 µM | 20.1 µM | 44.4 µM | > 100 µM
CCCCCCCCCCCCSC[C@H](NC(C)=O)C(=O)N(C)OC [HI-267, N-Ac-S-dodecyl-Cys-N(OCH3)-CH3] |  | > 100 µM | > 100 µM | 50.1 µM | > 100 µM
CC(C)=CCC/C(C)=C/CC/C(C)=C/CSC[C@H](NC(=O)CNC(=O)OC(C)(C)C)C(=O)CCl [HI-130, N-Boc-Gly-S-trans-trans-farnesyl-Cys chloromethyl ketone] (Boc-Gly-Cys(Farnesyl)-CH2Cl) | 17.5 µM | 71.3 µM | > 100 µM | 12.9 µM | > 100 µM
CCCCCCCCCCCCSC[C@H](NC(C)=O)C(=O)CSC(c1ccccc1)(c1ccccc1)c1ccccc1 [HI-365] | 97.3 µM | > 100 µM | > 100 µM | 93.1 µM | > 100 µM
CCCCCCCCCCCCOC[C@H](NC(=O)OC(C)(C)C)C(=O)CCl [HI-266, N-Boc-O-dodecyl serine chloromethyl ketone] |  | 37.1 µM | 49.9 µM | 64.5 µM | 
CCCCCCCCCCCCOC[C@H](NC(C)=O)C(=O)CCl [HI-489, N-Ac-O-dodecyl-serine chloromethyl ketone] | 15.3 µM | > 100 µM | > 100 µM | 3.8 µM | > 100 µM

Source: US6251882A, “Alkyl ketones as potent anti-cancer agents” (Parker Hughes Institute, priority 1999, dated 2001)
